From publication PMC8851282, “Senolysis induced by 25-hydroxycholesterol targets CRYAB in multiple cell types” (iScience, 2022)
pIC50: −log10 of the molar value.

Tests used:
[1] = tested on: human skeletal muscle myoblasts (HSMMs); assay: Cell viability assay (cell counting kit-8) of senescent and non-senescent HSMMs treated with inhibitors; type: cell-based; details: for pIC50: Homo sapiens, Myoblast, HSMM
Description: Figure 3 25HC is a senolytic in multiple muscle cell types (A) Targets, compounds, and mechanisms. (B) Timeline of cell viability assay with inhibitors. Cells were pre-cultured for 24 h, treated with Doxo for 24 h, and then treated with inhibitors. Cell viability was analyzed from day 0–7. (C–E) Effects of inhibitors on viability of FAPs, SCs, and HSMMs. Cells were treated with inhibitors at the indicated concentrations. Cell viability was analyzed on day 3 (HSMMs) or 5 (FAPs and SCs). Blue and red dots indicate non-senescent (NS) and senescent (SEN), respectively. The average value at 0 μM for each group was set at 100% cell viability. p values versus NS were obtained using unpaired two-tailed Student’s t test. ∗p < 0.05, ∗∗p < 0.01, and ∗∗∗p < 0.001.
All experiments were performed in incubators at 37 °C, 3% O2 and 5% CO2. Senescence was induced by treatment with either Doxo (250 nM for 24 h) ([Demaria et al., 2017]) or X-irradiation (10 Gy) ([Limbad et al., 2020]). For cell culture studies using 25HC, it was used at the indicated concentrations in the media.
FAPs and SCs were cultured on Matrigel-coated dishes (BD Biosciences) in growth medium (GM) consisting of DMEM plus 10% FBS, 1% penicillin-streptomycin and 10% MyoCult (STEMCELL Technologies) for 7 days. Human myogenic cell HSMMs (Lonza) were maintained according to the manufacturer’s instructions with SkGM-2 medium (Lonza).
Cell viability was assessed using a cell counting kit-8 from Dojindo Molecular Technologies, Inc (Cat CK04-20). Cells were incubated with culture media + 10% kit cell viability reagent, 150 μL/well in 96-well plates for 2 h. The supernatant was transferred to a new 96-well plate and absorbance read at 450 nm as recommended in the product datasheet.

[2] = tested on: human liver stellate cells (hLSCs); assay: Cell viability assay of NS and Doxo- or IR-induced senescent hLSCs treated with 25HC; type: cell-based; details: 100 μM after 3 days; Doxo or IR induced senescence
Description: (§1) Figure 7 25HC treatment timeline and its effects on NS and SEN hCMECs, hLSCs, hRPTECs, and hACs All cell types were treated with either DMSO, 250 nM Doxo or 10-Gy IR at the times shown. 25HC treatment was started 24 h after Doxo or IR treatment. Cell viability was measured every 3–5 days for 15 days. Optimal treatment times for maximum senolysis are shown for each cell type: day 15 for hCMECs, day 3 for hLSCs, day 9 for hRPTECs and day 12 for hACs. For qRT-PCR: mean ± SE, n =4, ∗p< 0.05, ∗∗p< 0.01, ∗∗∗p<0.001, ∗∗∗∗p<0.0001 by Dunnett’s multiple comparisons test vs DMSO or NS, For cell viability assays: mean ± SE, n =3, ∗∗p< 0.01, ∗∗∗p<0.001, ∗∗∗∗p<0.0001 vs 0 mM by student’s t test.
All experiments were performed in incubators at 37 °C, 3% O2 and 5% CO2. Senescence was induced by treatment with either Doxo (250 nM for 24 h) ([Demaria et al., 2017]) or X-irradiation (10 Gy) ([Limbad et al., 2020]). […]
(§2) Cell viability was assessed using a cell counting kit-8 from Dojindo Molecular Technologies, Inc (Cat CK04-20). […] The supernatant was transferred to a new 96-well plate and absorbance read at 450 nm as recommended in the product datasheet. […]
Cells were treated with either DMSO or 250 nM Doxo for 24 h. […] Cell viability was measured every 3-–5 days until 15 days.
(b) 25HC effects on NS or IR-treated hLSCs at vari ous ti mes. […] Cell viability was measured every 3–5 days until 15 days. […]

[3] = tested on: human renal proximal tubule epithelial cells (hRPTECs); assay: Cell viability assay of NS and Doxo- or IR-induced senescent hRPTECs treated with 25HC; type: cell-based; details: 5 μM after 9 days; Doxo or IR induced senescence
Description: as §1
All experiments were performed in incubators at 37 °C, 3% O2 and 5% CO2. […]
as §2
Supplementary Fig. 12 (related to Fig. 7) | 25HC treatment of human renal epithelial cells (a) 25HC effects on DMSO- or Doxo-treated hRPTECs at various times. […] Cel l vi abi l i ty was measured every 3–5 days until 15 days. […]
Cells were NS or treated with 10-Gy X-rays. […] Cell viability was measured every 3–5 days until 15 days. […]

[4] = tested on: Cdkn1a mRNA and SASP factors in skeletal muscle; assay: qRT-PCR of senescence markers, Cryab and SASP factors in skeletal muscles of aged mice given 25HC; type: in vivo, mouse

C[C@H](CCCC(C)(C)O)[C@H]1CC[C@H]2[C@@H]3CC=C4C[C@@H](O)CC[C@]4(C)[C@H]3CC[C@]12C [25HC, 25-hydroxycholesterol]
viability of senescent versus non-senescent HSMMs ([1]; Doxo-induced senescence, viability on day 3): significantly decreased cell viability | pIC50 ([1]; 72 h, 3 days in culture): 5.14 | pIC50 ([1]; 168 h, 7 days in culture): 5.43 | senolysis in hLSCs [2]: induced significant senolysis | senolysis in hRPTECs [3]: induced significant senolysis | Cdkn1a mRNA induction by aging in gastrocnemius and soleus muscles ([4]; 24–26-month-old mice, both genders, 25HC 50 mg/kg i.p. for 5 days): significantly reduced | expression of SASP factors, including IL6, in skeletal muscle ([4]; mice treated with 25HC (Figures S17 and S18)): substantially inhibited
